Results reported in patent publication US9931380B2, “Medicament for treating olfaction disorder” (priority 2015, dated 2018).

Experiments:
[1] = Blood sugar level of DM (STZ) mice given the insulin preparation; type: in vivo, C57BL/6 mice; conditions: intraperitoneally once a day, 2 to 3 U/kg of insulin detemir
Method: (§1) To C57BL/6 mice (normal mice; Japan SLC, Inc) at the age of 10 weeks, 120 mg/kg of streptozotocin (STZ; Sigma-Aldrich) was administered intraperitoneally for three days in a row, on Days 0 (Initial administration), 1, and 2. On Day 7, those with a fasting blood glucose (fasting blood sugar level: FBS) of 250 mg/dl or more were defined as DM mice in which pancreatic β cells were specifically impaired. Moreover, subsequent operations used those with a blood sugar of more than 250 mg/dl at any time after about one week since the administration of STZ.
As the insulin preparation, “Levemir FlexPen (Registered Trademark)” was used (referred to as Levemir). Levemir was administered intraperitoneally into DM mice once a day, with 2 to 3 U/kg of the insulin detemir each. […] The amount of insulin given here was therefore regarded as the amount that can properly resolve the shortages of insulin in the DM mice. The olfactory epithelium tissues of groups of DM mice (group a, group b, and group c) were observed 14 days after the administration of methimazole (Refer to FIGS. 9A and 9B): Each group differs on the time when insulin was additionally given. […] Then, with the use of the above-described method, the number of olfactory nerve cells (OSNs) of olfactory epithelium, the thickness of olfactory epithelium, and the number of OMP positive cells were counted in each group. […]

olfactory epithelium = assay: Regeneration of olfactory epithelium in DM model mice with methimazole-induced olfactory disturbance after insulin administration; type: in vivo, C57BL/6 mice; conditions: for number of olfactory nerve cells, DM mice vs normal mice / thickness of olfactory epithelium, DM mice vs normal mice / number of mature olfactory nerve cells (number of OMP positive cells), DM mice vs normal mice: read 14 days after methimazole
Method: as §1
To each of positive control mice, which were created by giving only physiological saline to normal mice, and DM mice, 80 mg/kg of methimazole (Siyma-Aldrich) was administered intraperitoneally in order to create model mice with olfactory disturbance. The model mice with olfactory disturbance were created as metabolites of methimazole selectively damaged olfactory epithelium. The mechanism of olfactory disturbance is considered to be the activation of caspase that induces apoptosis in olfactory cells. When normal mice were given methimazole, the damaged olfactory epithelium could recover to the almost normal level about 28 days after the administration. Moreover, normal mice that were given physiological saline instead of methimazole were used as control. Their weight and blood sugar levels of tail veins were measured 28 days after the methimazole injection.
The hearts of mice were perfused with 4% paraformaldehyde in 0.1M phosphate buffer. The mice were sacrificed and fixed 24 hours later with the same fixative. Nostril tissues containing OE were decalcified with a 10% EDTA solution (pH 7.0), and were embedded in paraffin. Coronal sections (with thickness of 4 μm) were cut off and put on silane-coated slides. The deparaffinized sections were autoclaved for 10 minutes in Target Retrieval Solution (S1700; Dako) for antigen retrieval. Immunohistochemistry was conducted with one of the following antibodies: Anti-insulin receptors, anti-phosphorylated insulin receptors, anti-olfactory marker proteins (OMP, goat polyclonal, 1:4000 dilution; Wako Chemicals), anti-activated caspase-3 (rabbit polyclonal, 1:5000; Cell Signaling Technology), anti-Ki-67 (mouse monoclonal, 1:500; BD Biosciences), and anti-c-fos antibodies (Rabbit IgG, 1:1000; Santa Cruz Biotechnology).
In order to suppress the variation of data values that could be caused by anatomical changes (e.g. aerated nasal turbinate) between mice and in the mice, the OE analysis was conducted in such a way as to be limited to OE (olfactory epithelium) of the nasal septum and nasal turbinate's top on the right and left sides in the nasal cavity.
Sections were cut at intervals of 500 μm. The olfactory epithelium included the following two cell lines: Olfactory nerve cells (OSNs) and basal stem cells. Rectangular cells on lamina propria in OE were defined as basal cells. The rest of the cells were defined as OSNs. The thickness, or distance from the lamina propria to the surface, was measured with software known as ImageJ. The number of OSNs labeled with anti-OMP, anti-activated caspase-3, and anti-Ki-67 antibody was quantitatively analyzed by uniquely immunostaining for each antigen and using sections counterstained with hematoxylin. As for connective tissues under the lamina propria, the immunostaining of cells with an intermediate background intensity more than double the standard deviation was regarded as being positive. The number of OSNs and the number of immunostained cells (OMP-positive cells, Ki-67-positive cells, and caspase-3 positive cells) were measured along the total length of the nasal septum in microscopic observation images (of each of normal groups and STZ groups) for both the left and right sides. […]

[2] = group a: 3 U/kg i.p. day 1 to 14
[3] = group b as printed: 3 U/kg i.p. day 1 to 7
[4] = group b: 3 U/kg i.p. only day 1 to 7, 14 days after onset of disturbance
[5] = groups a (day 1 to 14) and c (day 7 to 14), 3 U/kg i.p., 14 days after onset of disturbance

## insulin detemir [Levemir]
[1]
  blood sugar levels: around 130 mg/dl
Olfactory epithelium; [2]
  number of olfactory nerve cells, DM mice vs normal mice: no significant difference
  thickness of olfactory epithelium, DM mice vs normal mice: no significant difference
Olfactory epithelium; group a: 3 U/kg i.p. every day, day 1 to 14 after methimazole
  number of mature olfactory nerve cells (number of OMP positive cells), DM mice vs normal mice: broadly comparable to normal mice
Olfactory epithelium; [3]
  number of olfactory nerve cells, DM mice vs normal mice: no significant difference
  thickness of olfactory epithelium, DM mice vs normal mice: no significant difference
Olfactory epithelium; group b as printed: 3 U/kg i.p. only day 1 to 7 after methimazole
  number of mature olfactory nerve cells (number of OMP positive cells), DM mice vs normal mice: broadly comparable to normal mice
Olfactory epithelium; [4]
  number of OMP positive cells, compared with groups a and c: significant decreases
  number of OSNs, compared with groups a and c: significant decreases
  thickness of olfactory epithelium, compared with groups a and c: significant decreases
Olfactory epithelium; [5]
  number of OMP positive cells: no significant differences
  number of OSNs: no significant differences
  thickness of olfactory epithelium: no significant differences
